Data taken from PMC10408569, “Recruitment of hexahydroquinoline as anticancer scaffold targeting inhibition of wild and mutants EGFR (EGFR^WT, EGFR^T790M, and EGFR^L858R)” (Journal of Enzyme Inhibition and Medicinal Chemistry, 2023).

Key:
SW-620 = experiment: NCI-60 anticancer screening (SRB); type: cell-based; settings: Homo sapiens; SW-620, colon cancer; one dose 10 μM; read-out: Growth Inhibition Percentage (GI %)
SR = experiment: NCI-60 anticancer screening (SRB); type: cell-based; settings: Homo sapiens, leukemia, one dose 10 μM, read-out: Growth Inhibition Percentage (GI %)
SK-MEL-5 = experiment: NCI-60 anticancer screening (SRB); type: cell-based; settings: Homo sapiens; SK-MEL-5, melanoma; one dose 10 μM; read-out: Growth Inhibition Percentage (GI %)
HOP-62 = experiment: NCI-60 anticancer screening (SRB); type: cell-based; settings: Homo sapiens; HOP-62, NSC lung cancer; one dose 10 μM; read-out: Growth Inhibition Percentage (GI %)
KM 12 = experiment: NCI-60 anticancer screening (SRB); type: cell-based; settings: Homo sapiens, KM12; KM 12, colon cancer; one dose 10 μM; read-out: Growth Inhibition Percentage (GI %)
RXF 393 = experiment: NCI-60 anticancer screening (SRB); type: cell-based; settings: Homo sapiens; RXF 393, renal cancer; one dose 10 μM; read-out: Growth Inhibition Percentage (GI %)
T-47D = experiment: NCI-60 anticancer screening (SRB); type: cell-based; settings: Homo sapiens, T47D, breast cancer, one dose 10 μM, read-out: Growth Inhibition Percentage (GI %)
ACHN = experiment: NCI-60 anticancer screening (SRB); type: cell-based; settings: Homo sapiens, renal cancer, one dose 10 μM, read-out: Growth Inhibition Percentage (GI %)
SK-OV-3 = experiment: NCI-60 anticancer screening (SRB); type: cell-based; settings: Homo sapiens; SK-OV-3, ovarian cancer; one dose 10 μM; read-out: Growth Inhibition Percentage (GI %)
NCI 60 cancer cell lines = experiment: NCI-60 anticancer screening (SRB), whole panel; type: cell-based, human; settings: mean across the NCI-60 panel; one dose 10 μM
NCI-H322M = experiment: NCI-60 anticancer screening (SRB); type: cell-based; settings: Homo sapiens, NSC lung cancer, one dose 10 μM, read-out: Growth Inhibition Percentage (GI %)
RPMI-8226 = experiment: NCI-60 anticancer screening (SRB); type: cell-based; settings: Homo sapiens; RPMI-8226, leukemia; one dose 10 μM; read-out: Growth Inhibition Percentage (GI %)
OVCAR-5 = experiment: NCI-60 anticancer screening (SRB); type: cell-based; settings: Homo sapiens; OVCAR-5, ovarian cancer; one dose 10 μM; read-out: Growth Inhibition Percentage (GI %)
A549/ATCC = experiment: NCI-60 anticancer screening (SRB); type: cell-based; settings: Homo sapiens; A549/ATCC, NSC lung cancer; one dose 10 μM; read-out: Growth Inhibition Percentage (GI %)
HCC-2998 = experiment: NCI-60 anticancer screening (SRB); type: cell-based; settings: Homo sapiens; HCC-2998, colon cancer; one dose 10 μM; read-out: Growth Inhibition Percentage (GI %)
PC-3 = experiment: NCI-60 anticancer screening (SRB); type: cell-based; settings: Homo sapiens; PC-3, prostate cancer; one dose 10 μM; read-out: Growth Inhibition Percentage (GI %)
SNB-19 = experiment: NCI-60 anticancer screening (SRB); type: cell-based; settings: Homo sapiens; SNB-19, CNS cancer; one dose 10 μM; read-out: Growth Inhibition Percentage (GI %)
UACC-257 = experiment: NCI-60 anticancer screening (SRB); type: cell-based; settings: Homo sapiens; UACC-257, melanoma; one dose 10 μM; read-out: Growth Inhibition Percentage (GI %)
NCI-H460 = experiment: NCI-60 anticancer screening (SRB); type: cell-based; settings: Homo sapiens; NCI-H460, NSC lung cancer; one dose 10 μM; read-out: Growth Inhibition Percentage (GI %)
HCT-15 = experiment: NCI-60 anticancer screening (SRB); type: cell-based; settings: Homo sapiens; HCT-15, colon cancer; one dose 10 μM; read-out: Growth Inhibition Percentage (GI %)
MDA-MB-231 = experiment: NCI-60 anticancer screening (SRB); type: cell-based; settings: Homo sapiens; MDA-MB-231, breast cancer; one dose 10 μM; read-out: Growth Inhibition Percentage (GI %)
IGROV1 = experiment: NCI-60 anticancer screening (SRB); type: cell-based; settings: Homo sapiens, IGROV-1; IGROV1, ovarian cancer; one dose 10 μM; read-out: Growth Inhibition Percentage (GI %)
SN 12C = experiment: NCI-60 anticancer screening (SRB); type: cell-based; settings: Homo sapiens, SN12C; SN 12C, renal cancer; one dose 10 μM; read-out: Growth Inhibition Percentage (GI %)
HT29 = experiment: NCI-60 anticancer screening (SRB); type: cell-based; settings: Homo sapiens, HT-29; HT29, colon cancer; one dose 10 μM; read-out: Growth Inhibition Percentage (GI %)
HCT-116 = experiment: NCI-60 anticancer screening (SRB); type: cell-based; settings: Homo sapiens; HCT-116, colon cancer; one dose 10 μM; read-out: Growth Inhibition Percentage (GI %)
SF-539 = experiment: NCI-60 anticancer screening (SRB); type: cell-based; settings: Homo sapiens; SF-539, CNS cancer; one dose 10 μM; read-out: Growth Inhibition Percentage (GI %)
MDA-MB-435 = experiment: NCI-60 anticancer screening (SRB); type: cell-based; settings: Homo sapiens; MDA-MB-435, melanoma; one dose 10 μM; read-out: Growth Inhibition Percentage (GI %)

Question: Which inhibition at 10 µM (SW-620) does the source give for `CCOC(=O)C1=C(N)N(c2ccccc2)C2=C(C(=O)CC(C)(C)C2)C1c1ccc(N2CCOCC2)cc1` (racemic) [8l, (±)-Ethyl 2-amino-7,7-dimethyl-4-[4-(morpholin-4-yl)phenyl]-5-oxo-1-phenyl-1,4,5,6,7,8-hexahydroquinoline-3-carboxylate] here?
Answer: < 10%

Question: And the inhibition at 10 µM (SR)?
Answer: 16%

Question: What about the inhibition at 10 µM (SK-MEL-5) of the same compound?
Answer: < 10%

Question: What about the inhibition at 10 µM (HOP-62) of the same compound?
Answer: < 10%

Question: And the inhibition at 10 µM (KM 12)?
Answer: < 10%

Question: What about the inhibition at 10 µM (RXF 393) of the same compound?
Answer: < 10%

Question: And the inhibition at 10 µM (T-47D)?
Answer: < 10%

Question: And the inhibition at 10 µM (ACHN)?
Answer: < 10%

Question: And the inhibition at 10 µM (SK-OV-3)?
Answer: < 10%

Question: And the GI % mean (NCI 60 cancer cell lines)?
Answer: - ((-) = GI % mean less than 10)

Question: And the inhibition at 10 µM (NCI-H322M)?
Answer: < 10%

Question: What about the inhibition at 10 µM (RPMI-8226) of the same compound?
Answer: < 10%

Question: And the inhibition at 10 µM (OVCAR-5)?
Answer: < 10%

Question: What about the inhibition at 10 µM (A549/ATCC) of the same compound?
Answer: < 10%

Question: And the inhibition at 10 µM (HCC-2998)?
Answer: < 10%

Question: And the inhibition at 10 µM (PC-3)?
Answer: < 10%

Question: What about the inhibition at 10 µM (SNB-19) of the same compound?
Answer: < 10%

Question: What about the inhibition at 10 µM (UACC-257) of the same compound?
Answer: < 10%

Question: And the inhibition at 10 µM (NCI-H460)?
Answer: < 10%

Question: What about the inhibition at 10 µM (HCT-15) of the same compound?
Answer: < 10%

Question: And the inhibition at 10 µM (MDA-MB-231)?
Answer: < 10%

Question: And the inhibition at 10 µM (IGROV1)?
Answer: < 10%

Question: What about the inhibition at 10 µM (SN 12C) of the same compound?
Answer: < 10%

Question: And the inhibition at 10 µM (HT29)?
Answer: < 10%

Question: And the inhibition at 10 µM (HCT-116)?
Answer: < 10%

Question: And the inhibition at 10 µM (SF-539)?
Answer: < 10%

Question: And the inhibition at 10 µM (MDA-MB-435)?
Answer: < 10%

Question: How did the inhibition at 10 µM (SW-620) turn out when `CCOC(=O)C1=C(N)N(c2ccc(Cl)cc2)C2=C(C(=O)CC(C)(C)C2)C1c1ccc(N2CCOCC2)cc1` (racemic) [8m, (±)-Ethyl 2-amino-1–(4-chlorophenyl)-7,7-dimethyl-4-[4-(morpholin-4-yl)phenyl]-5-oxo-1,4,5,6,7,8-hexahydroquinoline-3-carboxylate] was run?
Answer: < 10%

Question: What about the inhibition at 10 µM (SR) of the same compound?
Answer: < 10%

Question: What about the inhibition at 10 µM (SK-MEL-5) of the same compound?
Answer: 20%

Question: What about the inhibition at 10 µM (HOP-62) of the same compound?
Answer: < 10%

Question: And the inhibition at 10 µM (KM 12)?
Answer: < 10%

Question: What about the inhibition at 10 µM (RXF 393) of the same compound?
Answer: < 10%

Question: What about the inhibition at 10 µM (T-47D) of the same compound?
Answer: < 10%

Question: And the inhibition at 10 µM (ACHN)?
Answer: < 10%

Question: And the inhibition at 10 µM (SK-OV-3)?
Answer: < 10%

Question: What about the GI % mean (NCI 60 cancer cell lines) of the same compound?
Answer: - ((-) = GI % mean less than 10)

Question: What about the inhibition at 10 µM (NCI-H322M) of the same compound?
Answer: < 10%

Question: What about the inhibition at 10 µM (RPMI-8226) of the same compound?
Answer: < 10%

Question: And the inhibition at 10 µM (OVCAR-5)?
Answer: < 10%

Question: And the inhibition at 10 µM (A549/ATCC)?
Answer: < 10%

Question: What about the inhibition at 10 µM (HCC-2998) of the same compound?
Answer: < 10%

Question: And the inhibition at 10 µM (PC-3)?
Answer: < 10%

Question: And the inhibition at 10 µM (SNB-19)?
Answer: < 10%

Question: And the inhibition at 10 µM (UACC-257)?
Answer: < 10%

Question: What about the inhibition at 10 µM (NCI-H460) of the same compound?
Answer: < 10%

Question: What about the inhibition at 10 µM (HCT-15) of the same compound?
Answer: < 10%

Question: What about the inhibition at 10 µM (MDA-MB-231) of the same compound?
Answer: 13%

Question: What about the inhibition at 10 µM (IGROV1) of the same compound?
Answer: < 10%

Question: What about the inhibition at 10 µM (SN 12C) of the same compound?
Answer: < 10%

Question: What about the inhibition at 10 µM (HT29) of the same compound?
Answer: < 10%

Question: And the inhibition at 10 µM (HCT-116)?
Answer: < 10%

Question: What about the inhibition at 10 µM (SF-539) of the same compound?
Answer: < 10%

Question: And the inhibition at 10 µM (MDA-MB-435)?
Answer: < 10%

Question: For `CCOC(=O)C1=C(N)N(c2ccccc2)C2=C(C(=O)CC(C)(C)C2)C1c1ccccn1` (racemic) [12a, (±)-Ethyl 2-amino-7,7-dimethyl-5-oxo-1-phenyl-4-(pyridin-2-yl)-1,4,5,6,7,8-hexahydroquinoline-3-carboxylate], which inhibition at 10 µM (SW-620) is on record?
Answer: < 10%

Question: And the inhibition at 10 µM (SR)?
Answer: 16%

Question: What about the inhibition at 10 µM (SK-MEL-5) of the same compound?
Answer: < 10%

Question: And the inhibition at 10 µM (HOP-62)?
Answer: < 10%

Question: And the inhibition at 10 µM (KM 12)?
Answer: < 10%

Question: What about the inhibition at 10 µM (RXF 393) of the same compound?
Answer: < 10%

Question: What about the inhibition at 10 µM (T-47D) of the same compound?
Answer: < 10%

Question: And the inhibition at 10 µM (ACHN)?
Answer: < 10%

Question: And the inhibition at 10 µM (SK-OV-3)?
Answer: < 10%

Question: And the GI % mean (NCI 60 cancer cell lines)?
Answer: - ((-) = GI % mean less than 10)

Question: And the inhibition at 10 µM (NCI-H322M)?
Answer: < 10%

Question: And the inhibition at 10 µM (RPMI-8226)?
Answer: < 10%

Question: And the inhibition at 10 µM (OVCAR-5)?
Answer: < 10%

Question: And the inhibition at 10 µM (A549/ATCC)?
Answer: < 10%

Question: And the inhibition at 10 µM (HCC-2998)?
Answer: < 10%

Question: And the inhibition at 10 µM (PC-3)?
Answer: < 10%

Question: And the inhibition at 10 µM (SNB-19)?
Answer: < 10%

Question: And the inhibition at 10 µM (UACC-257)?
Answer: < 10%

Question: And the inhibition at 10 µM (NCI-H460)?
Answer: < 10%

Question: And the inhibition at 10 µM (HCT-15)?
Answer: < 10%

Question: What about the inhibition at 10 µM (MDA-MB-231) of the same compound?
Answer: < 10%

Question: What about the inhibition at 10 µM (IGROV1) of the same compound?
Answer: < 10%

Question: And the inhibition at 10 µM (SN 12C)?
Answer: < 10%

Question: What about the inhibition at 10 µM (HT29) of the same compound?
Answer: < 10%

Question: What about the inhibition at 10 µM (HCT-116) of the same compound?
Answer: < 10%

Question: And the inhibition at 10 µM (SF-539)?
Answer: < 10%

Question: What about the inhibition at 10 µM (MDA-MB-435) of the same compound?
Answer: < 10%
